Test system: HLA-A2.1 expressing cell lines presenting frameshift peptides
Test: Cytotoxicity assay of CTL directed against cells displaying frameshift peptides
Assay type: cell-based, human
Settings: cold targets: T2 cells pulsed with peptide, inhibitor:target ratio 50:1
Experimental: (§1) (FSP02); The antigen specificity of the FSP02 CTL line was tested in the presence of unlabeled cold targets, T2 cells pulsed with FSP02 (open squares) at an inhibitor:target ratio of 50:1. Lysis without cold targets is shown as a control (closed squares). All data are shown as the mean and standard deviation from 3 replicate wells. For experimental details see example 6.
as §1, with “(FSP06);” for “(FSP02);”, “FSP06” for “FSP02”, “pulsed either” for “pulsed”
CTL bulk cultures and/or CTL clones obtained according to the method described in Example 1 were tested for their cytotoxicity as follows:
Due to the limited amount of cell material clones were in some experiments pooled for the determination of the cytotoxicity. […]

**Q.** “RLSSCVPVA [FSP02, frameshift peptide from TGF-betaRII (−1), start amino acid 131]” was tested. Which “lysis of target cells by FSP CTL line (antigen specificity)” value did it give?
**A.** Its value is “Frameshift peptide specific and HLA-A2-restricted lysis of target cells”.

**Q.** How did the “lysis of target cells by FSP CTL line (antigen specificity)” value turn out when “SLYKFSPFPL [FSP06, frameshift peptide from OGT (−1), start amino acid 128]” was run?
**A.** The value was “Frameshift peptide specific and HLA-A2-restricted lysis of target cells”.

Reference: patent US8821864B2, “Compounds and methods useful for detection and treatment of cancer” (Roche MTM Laboratories AG, priority 2002, dated 2014)
